Measured values as given in publication PMC11259535 (ACS chemical biology, 2024).
Numbering of substitutions follows the chain as printed.

B1: succinyl-CoA:glutarate-CoA transferase (SUGCT) (Homo sapiens) (protein)
chain: PQSDMNNIKPLEGVKILDLTRVLAGPFATMNLGDLGAEVIKVERPGAGDDTRTWGPPFVGTESTYYLSVNRNKKSIAVNIKDPKGVKIIKELAAVCDVFVENYVPGKLSAMGLGYEDIDEIAPHIIYCSITGYGQTGPISQRAGYDAVASAVSGLMHITGPENGDPVRPGVAMTDLATGLYAYGAIMAGLIQKYKTGKGLFIDCNLLSSQVACLSHIAANYLIGQKEAKRWGTAHGSIVPYQAFKTKDGYIVVGAGNNQQFATVCKILDLPELIDNSKYKTNHLRVHNRKELIKILSERFEEELTSKWLYLFEGSGVPYGPINNMKNVFAEPQVLHNGLVMEMEHPTVGKISVPGPAVRYSKFKMSEARPPPLLGQHTTHILKEVLRYDDRAIGELLSAGVVDQHETH

What was measured:
[1] = biological target: T1, succinyl-CoA:glutarate-CoA transferase (SUGCT) (Homo sapiens, UniProt Q9HAC7, Q255A/K256A); assay: co-crystal structure; assay type: binding
T1 sequence (Q9HAC7 31-438 Q255A/K256A): B1 chain with Q225A, K226A

[2] = substrate: CC(C)(COP(=O)(O)OP(=O)(O)OC[C@H]1O[C@@H](n2cnc3c(N)ncnc32)[C@H](O)[C@@H]1OP(=O)(O)O)[C@@H](O)C(=O)NCCC(=O)NCCSC(=O)CCCC(=O)O; assay: saturation kinetics; assay type: biochemical, Homo sapiens

| Molecule | co-crystal structure [1] | Km [2] |
| --- | --- | --- |
| CCCCc1nc(Cl)c(C(=O)O)n1Cc1ccc(-c2ccccc2-c2nn[nH]n2)cc1 [losartan carboxylic acid] | There was unambiguous density for losartan carboxylic acid in one of the four active sites |  |
| B1 |  | 17.3 µM |
